The values below come from patent publication US9102754B2, “Immunomodulatory compositions and methods for treating disease with modified host defense peptides” (priority 2007, dated 2015).

For orientation: LD50 means the dose expected to kill half of the subjects tested.

In one data set the target is T1, PhoQ (Salmonella typhimurium, UniProt P0DM80).
T1 construct: S. typhimurium strain CS 120, which expresses a PhoP-regulated fusion between Salmonella acid phosphatase (PhoN) and E. coli alkaline phosphatase (PhoA); endogenous in cells; host or cells: S. typhimurium strain CS 120
In words: PhoPQ reporter assay (PhoN-PhoA fusion). It is filed as cell-based, S. typhimurium strain CS 120. Conditions: 5 μg/mL peptide, 5 mM magnesium. As to the method: S. typhimurium strain CS 120, which expresses a PhoP-regulated fusion between Salmonella acid phosphatase (PhoN) and E. coli alkaline phosphatase (PhoA), was utilized for the analysis of PhoPQ activation. The activity of this fusion protein was measured in media containing varying concentrations of the peptides and/or magnesium. For growth under PhoPQ activating conditions the growth media was supplemented with 50 μM MgCl2. Growth under PhoPQ-repressive conditions was performed in the presence of 5 mM MgCl2 as were all of the assays of peptide responses.
The ability of BMAP28 and RI-BMAP28 to initiate activation of a PhoPQ-dependent reporter was examined by incubation of bacterium in the presence of sub-lethal (5 μg/mL) concentrations of indicated peptide as well as 5 mM magnesium. Values reported represent the averages of three replicates. Activation and repression of PhoPQ by low (50 μM) and high (5 mM) magnesium respectively is also reported.
S. typhimurium strain CS 120, which expresses a PhoP-regulated fusion between Salmonella acid phosphatase (PhoN) and E. coli alkaline phosphatase (PhoA) was utilized for analysis of PhoPQ activation. The activity of this fusion protein was measured in salt-free LB media containing varying concentrations of the peptides and/or magnesium. For growth under PhoPQ activating conditions the growth media was supplemented with 50 μM MgCl2. […]
(In general: A reporter such as luciferase makes a cellular process visible.)

Data set [1] deals with Salmonella typhimurium ATCC 14028, Escherichia coli O157:H7, Serratia marcescens ATCC 274, Yersinia enterocolitica O:9 E40 (pYV40), Pseudomonas cepacia ATCC …. In words: Minimal inhibitory concentration, modified broth microdilution. The class given is cell-based. The text has this:
The present study examined the direct antimicrobial activity of BMAP-28 and RI-BMAP-28 against a series of bacterium which are of medical interest. […] This conclusion is also consistent with the maintained sequence and structure of the RI-BMAP-28. Antimicrobial activity, which is dependent upon non-chiral interactions with bacterial membranes, is anticipated to have the lowest structural requirements for maintenance of activity.
The bacterial strains used for this investigation were Salmonella typhimurium ATCC 14028, Escherichia coli O157:H7, Serratia marcescens ATCC 274, Yersinia enterocolitica O:9 E40 (pYV40), Pseudomonas cepacia ATCC 53795, and Salmonella enterititidis 27655R PT4.
The MIC of the peptides were measured using a modified broth microdilution method, Wu et al., Antimicrob. Agents Chemother. 43: 1274-1276, 1999, in LB medium, whereby the assay was performed in sterile 96-well, round-bottom polypropylene microtitre plates with an inoculum of 5×10^5 bacteria per mL. The plates were incubated at 37° C. for 12 h, solutions spotted onto LB-agar plates and the MIC was taken as the concentration at which no growth was observed.

Data set [2] concerns LPS-induced expression of BIRC3, CCL20, IL-8 and IL-10 in bovine monocytes. In words: HDP inhibition of LPS-induced gene expression (qRT-PCR). The class given is cell-based. Conditions: 100 ng/ml LPS; for reduction of LPS-induced CCL20 expression / reduction of LPS-induced IL-8 expression / reduction of LPS-induced IL-10 expression: 0.5 μg/mL peptide; for suppression of the induction of LPS-induced genes: 5 μg/mL peptide, 4 hours. The text has this: The induction of inflammation responses by lipopolysaccharide (LPS) has clinical significance as a mechanism of sepsis and also serves as a biomarker for the ability of HDPs to mediate anti-endotoxic function. Our investigation focuses on patterns of expression of genes (BIRC3, CCL20, IL-8 and IL-10) identified through microarray analysis to show the most significant levels of differential expression in response to LPS-stimulation in monocytes, Mookherjee et al., J. Leokocyte. Biol. 80:1-12, 2006; Mookherjee et al., J. Immunol. 176: 2455-2464, 2006. […] Biol. 80:1-12, 2006; Mookherjee et al., J. Immunol. 176: 2455-2464, 2006.
The data presented represents the average of experiments performed in triplicate for a single animal. While all three animals, each tested in triplicate, gave the same trend of responses, the magnitude of these responses is unique for each animal. This is typical of the animal-to-animal variation in the magnitude of LPS-induced responses that has been observed by our group.
Monocytes were purified from isolated PBMCs by MACS® purification using CD14 microbeads (Miltenyi Biotec Inc., Auburn, Calif.). Monocytes were then plated at 5×10^6 cells/well in 6-well plates using Aim V medium (Gibco™, Invitrogen Corp., San Diego, Calif.) supplemented with 10% heat-inactivated fetal bovine serum (Gibco™) and rested for 19 hours before stimulation.
The ability of BMAP-28 and RI-BMAP-28 to modulate patterns of gene expression induced by endotoxin stimulation was determined in cultured monocytes. Cultured monocytes were stimulated with purified LPS (100 ng/ml) in the presence or absence of different concentrations of antimicrobial peptides for 4 hours. […] Biol. 80:1-12, 2006; Mookherjee et al., J. Immunol. 176: 2455-2464, 2006, and in vivo, Clapp et al., Am. J. Respir. Cri. Care Med. 150: 611-617, 1994. Cells were pelleted and stored at −81° C.
RNA was extracted from the bovine PBMCs with the RNeasy Mini Kit (Qiagen Inc., Ontario, Canada) and the RNase-free DNase (Qiagen Inc.) as per the manufacturer's protocols.
Quantitive real-time PCR (qRT-PCR) was performed using Invitrogen's SuperScript™ III Platinum® two step qRT-PCR kit with SYBR® Green (Invitrogen Corp., San Diego, Calif.) on the Bio-Rad (Hercules, Calif.) iCycler. Briefly, 250 ng total RNA, 8 μL 2×RT reaction mix, 2 μL RT enzyme, and DNase/RNase free water were added to a final volume of 20 μL. The mixture was incubated at 25° C. for 5 minutes, followed by 1 hour incubation at 50° C. and a final incubation of 15 min at 70° C. to produce the cDNA. The PCR reaction was carried out as per the manufacturer's instructions (Invitrogen Corp.) using a mix of Platinum® SYBR® Green qRT-PCR Super-Mix UDG, the template cDNA, […] of the primer mix, and DNase/RNase free water up to 15 μL total volume per well. Cycling conditions were carried out as indicated by the Invitrogen's SuperScript™ III Platinum® two-step qRT-PCR kit with SYBR® Green.
For orientation: In qPCR the cycle at which signal appears reflects the starting amount.

Data set [3] has as its system LPS-induced TNF-α secretion in bovine PBMCs. The data set can be described thus: HDP inhibition of LPS-induced TNF secretion (capture ELISA). The class given is cell-based. Conditions: 100 ng/ml LPS, various peptide concentrations. The text has this: As patterns expression are not necessarily predictive of final biological responses we sought to confirm the immunomodulatory capabilities of RI-BMAP-28 through independent analysis. Specifically, the ability of the two isomers to influence secretion of the pro-inflammatory cytokine tumor necrosis factor alpha (TNF-α) following LPS stimulation was examined. Secretion of TNF-α is a well established biomarker of inflammation responses (52).
The secretion of TNF in culture supernatants was quantified with a capture ELISA. Inhibition of LPS-induced TNF secretion was evaluated by adding various concentrations of BMAP-28 (▴) or retro-inverso RI-BMAP-28 (▪) to duplicate PBMCs cultures. The data presented experiments performed in a single animal. While all three animals gave the same trend of responses, the magnitude of these responses is unique for each animal. […]
Untreated cells or cells treated with LPS for 24 h, in the presence or absence of the HDPs, were centrifuged at 1000×g for 5 min followed by 10,000×g for 10 min to obtain cell-free tissue culture supernatant samples. […] TNF-α secretion was monitored with a species-specific capture ELISA (37). […] The concentration of the cytokine was quantified by establishing a standard curve with serial dilutions of the recombinant human TNF-α (eBioscience, San Diego, Calif.) or bovine TNFα (Genetech Inc. San Francisco, Calif.).
A general note: An ELISA detects its analyte on a solid surface through an enzyme-linked reagent.

The next data set has as its system bovine erythrocytes. In words: Cytotoxicity (hemolysis) assay. The class given is cell-based. As to the method:
To determine the cytotoxicity of BMAP-28 and RI-BMAP-28 the peptides were incubated overnight at a range of concentrations in the presence of bovine erythrocytes. Consistent with what has been reported by others, BMAP-28 began to exert a cytotoxic effect at concentrations as low as 30 μg/mL. Complete hemolysis was observed by 200 μg/mL of BMAP-28. […] As toxicity currently represents a limiting factor to the systemic administration of HDPs this finding could be of particular significance.
Hemolysis was performed by incubating a 1% (v/v) suspension of bovine erythrocytes in phosphate buffered saline (pH 7.4) with a series of peptide concentrations for 12 hours at 37° C. Samples were then centrifuged and the supernatant absorbance read at 415 nm. Total hemolysis was obtained by resuspending in cells in water rather than PBS. Results are the average from four independent experiments.
Cytotoxicity assays were performed as based upon previously established protocols, Chen et al., Chem. Biol. Drug Des. 67: 162-173, 2006. Briefly, peptide samples were added to 1% bovine erythrocytes in phosphate-buffered saline and reactions were incubated at 37° C. for 18 h in microtiter plates. Appropriate dilutions of the peptides were made fresh prior to each MHC trial in HDP dilution buffer (0.2% BSA, 0.01% acetic acid) and added following addition of the erythrocytes in the appropriate microtiter plate well position. Hemolysis was determined by withdrawing aliquots from the assays, removing unlysed erythrocytes by centrifugation (800×g) and determining which peptide concentrations cause hemoglobin release. Hemoglobin release was determined spectrophotometrically at 570 nm. A sample of 1% erythrocytes with no added peptide served as a non-lysis control. As erythrocytes were incubated in an isotonic medium, no detectable release (<1% of that released upon complete hemolysis) of hemoglobin was observed from this control.

In a further data set the test system is mice. Particulars: cited from earlier work.

Where two headings read alike, the source gives them in different places. Non-standard residues stand in square brackets, D forms with d. Where only a bound is given, the exact number is not on record here.

T1 sequence (P0DM80 whole entry, the tested form may be a part): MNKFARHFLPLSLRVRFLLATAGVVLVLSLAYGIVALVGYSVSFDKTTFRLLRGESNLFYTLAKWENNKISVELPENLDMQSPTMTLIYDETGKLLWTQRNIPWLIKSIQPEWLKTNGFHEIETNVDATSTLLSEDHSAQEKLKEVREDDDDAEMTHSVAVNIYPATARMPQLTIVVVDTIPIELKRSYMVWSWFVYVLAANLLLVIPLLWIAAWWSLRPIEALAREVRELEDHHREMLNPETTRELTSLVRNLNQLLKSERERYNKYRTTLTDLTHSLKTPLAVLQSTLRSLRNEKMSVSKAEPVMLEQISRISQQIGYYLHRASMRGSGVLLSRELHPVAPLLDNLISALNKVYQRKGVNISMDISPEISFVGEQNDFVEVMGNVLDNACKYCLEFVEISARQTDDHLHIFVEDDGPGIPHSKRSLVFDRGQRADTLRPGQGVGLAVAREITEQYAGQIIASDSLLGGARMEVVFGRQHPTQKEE

As to “D-amino acids of NH2-GIRIIPVIIPGYKKWARLIKRGLSRLG-COOH (H-G[dI][dR][dI][dI][dP][dV][dI][dI][dP]G[dY][dK][dK][dW][dA][dR][dL][dI][dK][dR]G[dL][dS][dR][dL]G-OH; also: retro-inverso) [RI-BMAP-28, retro-inversed form of BMAP-28]”, the “activation of PhoPQ-dependent reporter” value with PhoQ is recorded as “identical patterns of activation”. For the same substance, the “potency as direct antimicrobial agent versus natural isomer” value in data set [1] (against a spectrum of bacteria) is 2-3 fold. The “MIC values relative to that of the natural peptide” value in data set [1] (all strains tested, LB medium, 37° C., 12 h) is “half to a third”. Further, in data set [2], the “reduction of LPS-induced CCL20 expression” value is on record as “two-fold reduction”, the “reduction of LPS-induced IL-8 expression” value is “four-fold”, the “reduction of LPS-induced IL-10 expression” value is on record as “two-fold reduction” and the “suppression of the induction of LPS-induced genes” value is “four to five-fold suppression”. Besides, the “inhibition of LPS-induced TNF-α secretion” value in data set [3] is on record as “dose-dependent inhibition”. Besides, the “cytotoxic effects over the range of peptide concentrations examined” value in the data set on bovine erythrocytes (1% bovine erythrocytes in PBS, overnight, 37° C.) was “did not exhibit any cytotoxic effects”.
As for “NH2-GLRSLGRKILRAWKKYGPIIVPIIRIG-COOH (H-GLRSLGRKILRAWKKYGPIIVPIIRIG-OH) [BMAP-28, natural host defense peptide, a 27 amino acid proteolytic product of the antibacterial peptide BMAP-28 precursor protein]”, the median lethal dose (LD50) in the data set with mice (administered intravenously) is 15 mg/kg. Also, the LD50 result with mice (mice, i.p. administration) is “approximately 40 mg/kg”. Also, in the data set with PhoQ, the “activation of PhoPQ-dependent reporter” value is “identical patterns of activation”. Besides, in data set [2], the “reduction of LPS-induced CCL20 expression” value was “two-fold reduction”, the “reduction of LPS-induced IL-8 expression” value is “four-fold”, the “reduction of LPS-induced IL-10 expression” value is recorded as “two-fold reduction” and the “suppression of the induction of LPS-induced genes” value is “four to five-fold suppression”. In addition, in data set [3], the “inhibition of LPS-induced TNF-α secretion” value was “dose-dependent inhibition”. In addition, in the data set with bovine erythrocytes, the “concentration at which a cytotoxic effect begins” value came out at 30 µg/mL and the “concentration giving complete hemolysis” value was not above 200 µg/mL.
